According to article PMC11855827, “High-Throughput Screening of Five Compound Libraries for Anthelmintic Activity and Toxicity Leads to the Discovery of Two Flavonoid Compounds” (International Journal of Molecular Sciences, 2025):
“And” between values parts separate entries of the source, which are not always exact repeats. Equal values may be shown once. Where a name gives a salt, the structure may show the parent alone.

System: C. elegans
Details: Table S2, C. elegans SS assay, 110 μM, averages of 4 data points

Compound	Percentage of motility inhibition 0 h	Percentage of motility inhibition 24 h
CC(C)=CCC[C@@](C)(O)[C@H]1CC[C@]2(C)[C@@H]1[C@H](O)C[C@@H]1[C@@]3(C)CC[C@H](O)C(C)(C)[C@@H]3[C@@H](O[C@@H]3O[C@H](CO)[C@@H](O)[C@H](O)[C@H]3O[C@@H]3O[C@@H](C)[C@H](O)[C@@H](O)[C@H]3O)C[C@]12C [20(R)-Ginsenoside Rg2]	0%	8%
C[C@]1(O)C[C@@H](O)[C@@H]2C=CO[C@@H](O[C@@H]3O[C@H](CO)[C@@H](O)[C@H](O)[C@H]3O)[C@@H]21 [Ajugol]	0%	2%
c1cc2c(c3c1C[C@H]1c4cc5c(cc4CCN1C3)OCO5)OCO2 (racemic) [(±)‐Stylopine]	0%	31%
CN(C)[C@@H]1C(=O)C(C(N)=O)=C(O)[C@@]2(O)C(=O)C3=C(O)c4c(O)ccc(Cl)c4[C@@](C)(O)[C@H]3C[C@@H]12.Cl [Chlortetracycline (hydrochloride)]	24%	5%
CC(=O)O[C@@]12CO[C@@H]1C[C@H](O)[C@@]1(C)C(=O)[C@H](O)C3=C(C)[C@@H](O)C[C@@](O)([C@@H](OC(=O)c4ccccc4)[C@H]21)C3(C)C [10-Deacetylbaccatin III]	4%	5%
C/C=C1\C[C@@H](C)[C@](O)(CO)C(=O)OCC2=CC[N+]3([O-])CC[C@@H](OC1=O)[C@@H]23 (some centres unmarked) [Usaramine N‐oxide]	22% and 12%	
COc1c(O[C@@H]2O[C@H](C(=O)O)[C@@H](O)[C@H](O)[C@H]2O)cc2oc(-c3ccccc3)cc(=O)c2c1O [Oroxylin A‐7‐O‐glucuronide]	0%	1%
COc1ccc2c(c1OC)C(OC)N(C)c1c-2ccc2cc3c(cc12)OCO3 (centres unmarked) [Angoline]	0%	0%
CC(C)(O[C@@H]1O[C@H](CO)[C@@H](O)[C@H](O)[C@H]1O)[C@@H]1CC[C@](O)(CO)[C@H]2CC(=O)[C@@](C)(O)[C@@H]2C1 [Atractyloside A]	13%	28%
C[C@@H]1O[C@@H](O[C@H]2C[C@@H](O)[C@]3(CO)[C@H]4[C@H](O)C[C@]5(C)[C@@H](C6=CC(=O)OC6)CC[C@]5(O)[C@@H]4CC[C@]3(O)C2)[C@H](O)[C@H](O)[C@H]1O.O.O.O.O.O.O.O.O [Ouabain (Octahydrate)]	0%	2%
C[C@H]1CC[C@@H]2N(C1)C[C@H]1[C@@H]3C[C@H]4[C@@H](C[C@H](O)[C@H]5C[C@@H](O)CC[C@@]54C)[C@@H]3CC[C@@H]1[C@]2(C)O [Peimine]	7%	0%
Amarogentin	2%	8%
NCCC[C@H](N)C(=O)O [L-Ornithine]	2%	4%
C=C1CC[C@H]2[C@@H](/C=C(\C)C(=O)[C@@]3(O)C[C@H](C)[C@H](O)[C@@H]3[C@@H]1O)C2(C)C [Lathyrol]	1%	3%
C=C1C(=O)O[C@@H]2C[C@@]3(C)CCC[C@H](C)C3=C[C@H]12 [Alantolactone]	6%	29%
C=CC1=C(C)/C(=C/C2=NC(=C\c3[nH]c(/C=C4\NC(=O)C(C)=C4C=C)c(C)c3CCC(=O)O)/C(CCC(=O)O)=C2C)NC1=O [Biliverdin (hydrochloride)]	0%	1%
COc1cc(C)c2c(=O)c(-c3ccccc3)coc2c1 [5‐Methyl‐7‐methoxyisoflavone]	16%	0%
CCC(CC)O[C@@H]1C=C(C(=O)O)C[C@H](N)[C@H]1NC(C)=O [Oseltamivir (acid)]	18%	8%
CC1(C)CC(NC(=O)C(=O)Nc2ccc(Br)cc2)CC(C)(C)N1 [NBD‐557]	22%	14%
COc1cc(/C=C/C(=O)O[C@H]2[C@H](O)[C@@H](CO)O[C@@]2(CO)O[C@H]2O[C@H](COC(=O)c3ccc(O)cc3)[C@@H](O)[C@H](O)[C@H]2O)cc(OC)c1OC [Tenuifoliside A]	0%	15%
COC[C@]12CN(C)C3[C@@H]4[C@H](OC)[C@H]1[C@@]3([C@@H](OC)C[C@H]2O)[C@]1(O)C[C@@]2(O)[C@H](OC(=O)c3ccccc3)[C@@H]1[C@]4(OC(C)=O)[C@@H](O)[C@@H]2OC [Beiwutine]		13% and 10%
C/C1=C\C(=O)c2c(C)coc2C/C(C)=C/CC1 [Furanodienone]	0%	0%
CC1OC(OC2C(Oc3cc(O)c4c(=O)cc(-c5ccc(O)cc5)oc4c3)OC(COC3OC(CO)C(O)C(O)C3O)C(O)C2O)C(O)C(O)C1O (centres unmarked) [Apigenin‐7‐O‐(2G‐rhamnosyl)gentiobioside]	10%	0%
